Measured values reported in patent US10118935B2, “Melampomagnolide B dimers” (priority 2014, dated 2018).

Experiments:
SF-539 = experiment: NCI 60 cell line five dose, CNS Cancer
PC-3 = experiment: NCI 60 cell line five dose, Prostate Cancer
HCT-116 = experiment: NCI 60 cell line five dose, Colon Cancer
CCRF-CEM = experiment: NCI 60 cell line five dose, Leukemia
A498 = experiment: NCI 60 cell line five dose, Renal Cancer
CAKI-1 = experiment: NCI 60 cell line five dose, Renal Cancer
OVCAR-5 = experiment: NCI 60 cell line five dose, Ovarian Cancer
IGROV1 = experiment: NCI 60 cell line five dose, Ovarian Cancer; type: cell-based, human
UACC-257 = experiment: NCI 60 cell line five dose, Melanoma
RPMI-8226 = experiment: NCI 60 cell line five dose, Leukemia
NCI-H460 = experiment: NCI 60 cell line five dose, Non-Small Cell Lung Cancer
SNB-75 = experiment: NCI 60 cell line five dose, CNS Cancer

Compound: C=C1C(=O)O[C@H]2[C@H]1CC/C(COC(=O)NCCCCNC(=O)OC/C1=C/CC[C@@]3(C)O[C@H]3[C@H]3OC(=O)C(=C)[C@@H]3CC1)=C\CC[C@@]1(C)O[C@@H]21 [JVM 3-54, bis(((1aR,7aS,10aS,10bS,E)-1a-Methyl-8-methylene-9-oxo-1a,2,3,6,7,7a,8,9,10a,10b-decahydrooxireno[2′,3′:9,10]cyclodeca[1,2-b]furan-5-yl)methyl)butane-1,4-diyldicarbamate]
- GI50 (SF-539): 1.55 µM
- TGI (SF-539): 3.71 µM
- Percent Growth (SF-539; Log10 Concentration −4.0): −100%
- Percent Growth (SF-539; Log10 Concentration −5.0): −57%
- Percent Growth (SF-539; Log10 Concentration −6.0): 75%
- Percent Growth (SF-539; Log10 Concentration −7.0): 93%
- Percent Growth (SF-539; Log10 Concentration −8.0): 103%
- CC50 (SF-539; read-out: LC50): 8.84 µM
- GI50 (PC-3): 2.55 µM
- TGI (PC-3): 8.05 µM
- Percent Growth (PC-3; Log10 Concentration −4.0): −93%
- Percent Growth (PC-3; Log10 Concentration −5.0): −9%
- Percent Growth (PC-3; Log10 Concentration −6.0): 91%
- Percent Growth (PC-3; Log10 Concentration −7.0): 99%
- Percent Growth (PC-3; Log10 Concentration −8.0): 99%
- CC50 (PC-3; read-out: LC50): 30.5 µM
- GI50 (HCT-116): 1.12 µM
- TGI (HCT-116): 2.63 µM
- Percent Growth (HCT-116; Log10 Concentration −4.0): −88%
- Percent Growth (HCT-116; Log10 Concentration −5.0): −78%
- Percent Growth (HCT-116; Log10 Concentration −6.0): 56%
- Percent Growth (HCT-116; Log10 Concentration −7.0): 85%
- Percent Growth (HCT-116; Log10 Concentration −8.0): 99%
- CC50 (HCT-116; read-out: LC50): 6.19 µM
- GI50 (CCRF-CEM): 0.272 µM
- TGI (CCRF-CEM): 0.845 µM
- Percent Growth (CCRF-CEM; Log10 Concentration −4.0): −50%
- Percent Growth (CCRF-CEM; Log10 Concentration −5.0): −46%
- Percent Growth (CCRF-CEM; Log10 Concentration −6.0): −7%
- Percent Growth (CCRF-CEM; Log10 Concentration −7.0): 94%
- Percent Growth (CCRF-CEM; Log10 Concentration −8.0): 98%
- CC50 (CCRF-CEM; read-out: LC50): > 100 µM
- GI50 (A498): 6.36 µM
- TGI (A498): 18.9 µM
- Percent Growth (A498; Log10 Concentration −4.0): −99%
- Percent Growth (A498; Log10 Concentration −5.0): 38%
- Percent Growth (A498; Log10 Concentration −6.0): 99%
- Percent Growth (A498; Log10 Concentration −7.0): 94%
- Percent Growth (A498; Log10 Concentration −8.0): 97%
- CC50 (A498; read-out: LC50): 43.9 µM
- GI50 (CAKI-1): 10.8 µM
- TGI (CAKI-1): 23 µM
- Percent Growth (CAKI-1; Log10 Concentration −4.0): −97%
- Percent Growth (CAKI-1; Log10 Concentration −5.0): 55%
- Percent Growth (CAKI-1; Log10 Concentration −6.0): 91%
- Percent Growth (CAKI-1; Log10 Concentration −7.0): 90%
- Percent Growth (CAKI-1; Log10 Concentration −8.0): 93%
- CC50 (CAKI-1; read-out: LC50): 49.1 µM
- GI50 (OVCAR-5): 1.75 µM
- TGI (OVCAR-5): 3.69 µM
- Percent Growth (OVCAR-5; Log10 Concentration −4.0): −72%
- Percent Growth (OVCAR-5; Log10 Concentration −5.0): −67%
- Percent Growth (OVCAR-5; Log10 Concentration −6.0): 87%
- Percent Growth (OVCAR-5; Log10 Concentration −7.0): 92%
- Percent Growth (OVCAR-5; Log10 Concentration −8.0): 95%
- CC50 (OVCAR-5; read-out: LC50): 7.79 µM
- GI50 (IGROV1): 3.32 µM
- TGI (IGROV1): 12.4 µM
- Percent Growth (IGROV1; Log10 Concentration −4.0): −76%
- Percent Growth (IGROV1; Log10 Concentration −5.0): 8%
- Percent Growth (IGROV1; Log10 Concentration −6.0): 96%
- Percent Growth (IGROV1; Log10 Concentration −7.0): 104%
- Percent Growth (IGROV1; Log10 Concentration −8.0): 101%
- CC50 (IGROV1; read-out: LC50 (the source's name)): 48.6 µM
- GI50 (UACC-257): 1.68 µM
- TGI (UACC-257): 4.99 µM
- Percent Growth (UACC-257; Log10 Concentration −4.0): −82%
- Percent Growth (UACC-257; Log10 Concentration −5.0): −32%
- Percent Growth (UACC-257; Log10 Concentration −6.0): 74%
- Percent Growth (UACC-257; Log10 Concentration −7.0): 92%
- Percent Growth (UACC-257; Log10 Concentration −8.0): 95%
- CC50 (UACC-257; read-out: LC50): 22.9 µM
- GI50 (RPMI-8226): 0.547 µM
- TGI (RPMI-8226): 3.08 µM
- Percent Growth (RPMI-8226; Log10 Concentration −4.0): −42%
- Percent Growth (RPMI-8226; Log10 Concentration −5.0): −33%
- Percent Growth (RPMI-8226; Log10 Concentration −6.0): 31%
- Percent Growth (RPMI-8226; Log10 Concentration −7.0): 102%
- Percent Growth (RPMI-8226; Log10 Concentration −8.0): 101%
- CC50 (RPMI-8226; read-out: LC50): > 100 µM
- GI50 (NCI-H460): 4.61 µM
- TGI (NCI-H460): 18 µM
- Percent Growth (NCI-H460; Log10 Concentration −4.0): −71%
- Percent Growth (NCI-H460; Log10 Concentration −5.0): 24%
- Percent Growth (NCI-H460; Log10 Concentration −6.0): 101%
- Percent Growth (NCI-H460; Log10 Concentration −7.0): 103%
- Percent Growth (NCI-H460; Log10 Concentration −8.0): 102%
- CC50 (NCI-H460; read-out: LC50): 60.7 µM
- GI50 (SNB-75): 2.19 µM
- TGI (SNB-75): 16.5 µM
- Percent Growth (SNB-75; Log10 Concentration −4.0): −65%
- Percent Growth (SNB-75; Log10 Concentration −5.0): 18%
- Percent Growth (SNB-75; Log10 Concentration −6.0): 67%
- Percent Growth (SNB-75; Log10 Concentration −7.0): 64%
- Percent Growth (SNB-75; Log10 Concentration −8.0): 70%
- CC50 (SNB-75; read-out: LC50): 66.3 µM
